Data reported in patent US8569259B2, “Adenosine analogs and their use” (Microdose Therapeutx, Inc., priority 2006, dated 2013).
Read-outs that look alike come from different tables or passages of the source.

Tests used:
P2Y2 receptor = target: T1, P2Y2 receptor (Homo sapiens, UniProt P41231); test: IP1 accumulation assay (kit IP-one HTRF); format: cell-based
T1 construct: host or cells: cells not identified for the IP1 assay
Method: The compounds described herein may be tested for their ability to elicit P2Y2 receptor activity using in vitro IP1 accumulation, intracellular calcium mobilization, mucus production and ciliary beat frequency assays, ex vivo Short Current Circuit and fluid transport assays for P2Y2 and other P2Y receptor activity assays, as described below.
Cells in midlog phase are collected with PBS-EDTA, washed and resuspended in medium without antibiotics at a concentration of 2×10^5 cells/ml. Cells (200 μL or 40.000 cells) are then distributed into a 96 well plate (Cellstar, Greiner, 655083). The plate is incubated overnight at 37° C. in a cell culture incubator. The next morning, the medium is removed and replaced by 50 μL of agonist diluted in the stimulation buffer provided with the kit IP-one (CisBio, 621P1PEB). The plate is incubated for 1 h at 37° C. in a cell culture incubator. 25 μL of the antibody diluted in lysis buffer is then added to each well. 25 μL of the IP1-d2 diluted in lysis buffer is added to each well and the plate is incubated for 1 h. at room temperature. The plate is then read on a Rubystar and dose-response curves are generated by plotting the ligand concentrations versus the DeltaF ratio.
EC50 values for certain compounds were obtained through an IP1 accumulation assay (kit IP-one HTRF), as described above.

male Balb/C mice [1] = test: Gastric retention and small intestine transit, 30 min after Tc-sulfur colloid meal; format: in vivo; conditions: 30 min after meal, tegaserod 0.1 mg/kg ip, lubiprostone 0.1 mg/kg oral, compound C 50 mg/kg oral; for geometric center (GC) of the small intestine: 1-way ANOVA or Student's t-test, FIG. 3; for stomach retention, percentage of total radioactivity left in the stomach: FIG. 5
Method: Male Balb/C mice were fasted overnight with free access to water. Water was then removed for 30 minutes. Each mouse was subsequently gavaged a liquid meal of 0.5% methylcellulose (weight-to-volume w/v) and 10% corn oil (volume-to-volume v/v) in water containing 5-10 μCi of an non-absorbable Tc-sulfur colloid radioactive marker as well as compound C at doses between 2 and 50 mg/kg (10 mL/kg), or lubiprostone at 100 μg/kg. A group was dosed with tegaserod (100 μg/kg) injected ip just prior to receiving vehicle by oral gavage. Control animals received vehicle only. Animals were euthanized 30 minutes after dosing and their GI tract was excised from the stomach down. The stomach was counted alone. The small intestine was extended and cut into 10 equally sized pieces, labeled 1 to 10 from stomach to caecum. Each piece of the small intestine, and the stomach, were counted for radioactivity. The geometric center (GC) of the small intestine was calculated according to GC=(Σ(i×Ci))/(ΣCi), where i is the label of the segment (from 1 to 10) and Ci is the number of counts. GC is a number between 1 and 10. The closer GC is to 10, the faster the small intestinal transit. Gastric retention was calculated as percent of total dose counted. GC's and gastric retentions were compared between dose and vehicle groups using a Student's t-test. A P-value of less than 0.05 was considered statistically significant, as depicted in FIGS. 3-5.

male Balb/C mice [2] = test: Large intestine transit, 2.5 hr after Tc-sulfur colloid meal; format: in vivo; conditions: 2.5 hr after meal; for gastric retention (percentage of total radioactivity left in stomach): compound C up to 50 mg/kg oral, lubiprostone 0.1 mg/kg oral, FIG. 6
Method: Male Balb/C mice were fasted overnight with free access to water. Water was then removed for 30 min. Each mouse was subsequently gavaged a liquid meal of 0.5% methylcellulose (weight-to-volume w/v) and 10% corn oil (volume-to-volume v/v) in water containing 5-10 μCi of an non-absorbable Tc-sulfur colloid radioactive marker containing the compound C at doses of 5, 10 and 50 mg/kg (10 mL/kg), or lubiprostone at 100 μg/kg. A group was dosed with tegaserod (100 μg/kg) injected ip just prior to receiving vehicle by oral gavage. Control animals received vehicle only. Animals were kept for 30 minutes in empty cages then given access to food and water at libitum. They were euthanized 2.5 hours after dosing and their GI tract was excised from the stomach down. The stomach and small intestine were counted alone. The large intestine was extended and cut into 3 equally sized pieces, labeled 1 to 3 from caecum to rectum. Each section was counted individually. Feces, labeled 4, were collected, weighed, and counted. The geometric center (GC) of the large intestine/feces portion of the GI tract was calculated according to GC=(Σ(i×Ci))/(ΣCi), where i is the label of the segment (from 1 to 4) and Ci is the number of counts. GC is a number between 1 and 4. The closer GC is to 4, the faster the intestinal transit. Between 7 and 12 mice were used for each dose group. Gastric retention was calculated as percent of total dose counted. Gastric retentions between compound-dosed and vehicle-dosed animals were compared using a one-way ANOVA test and a Dunnett post-test. GC's and feces weights were compared between compound- and vehicle-dosed animals using a similar statistical methodology. In all cases, a P-value of less than 0.05 was considered statistically significant.

male Balb/C mice [3] = test: Total gastrointestinal transit, carmine red dye meal, time to first red pellet and feces weight; format: in vivo; conditions: oral gavage 5 and 50 mg/kg
Method: Briefly, mice were administered a meal containing a non-absorbable red dye (carmine) and were monitored for 3 hours. Feces were collected and time of expulsion was recorded. Feces were weighed fresh and again after overnight drying. Time to first red-colored feces was used as a measure of total GI transit time. Total weight of wet and dry feces was used as a measure of fluid secretion.
Male Balb/C mice were fasted overnight with free access to water. They were then given access to food and water for 30 minutes. They were finally moved to empty plastic cages with no access to food or water. After 1 hour, each mouse was fed a liquid meal of 0.5% methylcellulose (weight-to-volume w/v) in water containing 3% carmine dye (w/v) as well as doses of the test compound at 5 and 50 mg/kg (10 mL/kg) with a gavage needle. Control animals received vehicle only. Each animal was held in an individual cage for the following 3 hours. The expulsion time of each feces was recorded to the nearest 5 seconds. Each feces was placed in a tared vial and the vial was capped. Fresh feces were weighed and the vials were kept uncapped overnight at 37° C. The feces were then weighed again. Average times to first red-colored feces for vehicle- and compound-dosed animals were compared using a Student's t-test (two-sided, unequal variance). A P-value of 0.05 or less was considered statistically significant. […]

[4] = compound falls in class +++, read-out: EC50, class +++ (<500 nM)
[5] = X = compound falls in class +, read-out: EC50, class + (>1000 nM)

T1 sequence (P41231 whole entry): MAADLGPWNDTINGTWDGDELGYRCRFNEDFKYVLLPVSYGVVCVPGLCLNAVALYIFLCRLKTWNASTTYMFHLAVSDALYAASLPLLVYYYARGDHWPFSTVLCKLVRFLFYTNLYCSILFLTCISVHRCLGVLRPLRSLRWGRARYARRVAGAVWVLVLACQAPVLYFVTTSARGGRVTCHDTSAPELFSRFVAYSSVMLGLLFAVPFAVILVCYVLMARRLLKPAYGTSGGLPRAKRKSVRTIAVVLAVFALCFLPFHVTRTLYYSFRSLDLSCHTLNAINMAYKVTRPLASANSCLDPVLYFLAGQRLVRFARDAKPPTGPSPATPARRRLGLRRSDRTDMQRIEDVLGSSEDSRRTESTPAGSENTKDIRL

Cn1cnc2c(ncn2[C@@H]2O[C@H](COP(=O)(O)OP(=O)(O)OP(=O)(O)O)[C@@H](O)[C@H]2O)c1=N [Compound P, 1-Methyl-Adenosine-5′-triphosphate]
EC50 (P2Y2 receptor; [4]): < 500 nM

CNc1c2ncn([C@@H]3O[C@H](COP(=O)(O)OP(=O)(O)OP(=O)(O)OP(=O)(O)OC[C@H]4O[C@@H](Oc5ccc(OC)cc5)[C@H](O)[C@@H]4O)[C@@H](O)[C@H]3O)c2nc[n+]1C [Compound D]
EC50 (P2Y2 receptor; [4]): < 500 nM

COc1ccc(O[C@@H]2O[C@H](COP(=O)(O)OP(=O)(O)OP(=O)(O)OP(=O)(O)OC[C@H]3O[C@@H](c4c[nH]c(=O)[nH]c4=O)[C@H](O)[C@@H]3O)[C@@H](O)[C@H]2O)cc1 [Compound N]
EC50 (P2Y2 receptor; X in this column = compound falls in class ++, read-out: EC50, class ++ (500-1000 nM)): 500 to 1000 nM

CCCCC(F)(F)[C@@]1(O)CC[C@H]2[C@@H](CC(=O)[C@@H]2CCCCCCC(=O)O)O1 [lubiprostone]
geometric center (GC) of the small intestine (male Balb/C mice [1]): No statistical significance was observed
stomach retention, percentage of total radioactivity left in the stomach (male Balb/C mice [1]): No statistical significance was found
gastric retention (percentage of total radioactivity left in stomach) (male Balb/C mice [2]): significant delay in gastric emptying

COc1ccc(O[C@@H]2O[C@H](COP(=O)(O)OP(=O)(O)OP(=O)(O)OC[C@H]3O[C@@H](n4cnc5c(=N)n(C)cnc54)[C@H](O)[C@@H]3O)[C@@H](O)[C@H]2O)cc1 [Compound E]
EC50 (P2Y2 receptor; [5]): > 1000 nM

COc1ccc(O[C@@H]2O[C@H](COP(=O)(O)OP(=O)(O)OP(=O)(O)OP(=O)(O)OC[C@H]3O[C@@H](n4cnc5c(=N)n(C)cnc54)[C@H](O)[C@@H]3O)[C@@H](O)[C@H]2O)cc1 [Compound C]
EC50 (P2Y2 receptor; [4]): < 500 nM
total weight of feces (wet, dry) and water content produced during 3 hours (male Balb/C mice [3]; 3 hrs after dosing, FIG. 2): dose-dependent increase in wet, and dry feces, as well as in water content
time to first red-colored feces (total GI transit time) (male Balb/C mice [3]; vs vehicle, FIG. 1): time to first red pellet decreases with increasing dose
geometric center (GC) of the small intestine (male Balb/C mice [1]): No statistical significance was observed
stomach retention, percentage of total radioactivity left in the stomach (male Balb/C mice [1]): No statistical significance was found
gastric retention (percentage of total radioactivity left in stomach) (male Balb/C mice [2]): virtually no effect on gastric retention
geometric center (GC) of the large intestine and feces (male Balb/C mice [2]; oral 5, 10 and 50 mg/kg, FIG. 7): calculated large intestine geometric center increases with increasing dose
percentage of total radioactivity found in the feces (male Balb/C mice [2]; oral 5, 10 and 50 mg/kg, FIG. 8): dose-dependent increase of % total radioactivity starting at 5 mg/kg dose at a percentage equivalent to that obtained with lubiprostone and tegaserod
dose with statistically significant effect on large intestine transit (male Balb/C mice [2]; oral, P<0.05 vs vehicle): ≥ 10 mg/kg
geometric center (GC) of the large intestine, effect compared with reference drugs (male Balb/C mice [2]; compound C 5 mg/kg oral): equivalent to that obtained with doses of lubiprostone (0.1 mg/kg) and tegaserod (0.1 mg/kg)

O=P(O)(O)OP(=O)(O)OP(=O)(O)OC[C@H]1O[C@@H](Oc2cccnc2)[C@H](O)[C@@H]1O [Compound M, 3-Pyridyl-β-D-ribofuranosid-5′-triphosphate]
EC50 (P2Y2 receptor; [5]): > 1000 nM

COc1ccc(N(C)C[C@@H]2O[C@H](COP(=O)(O)OP(=O)(O)OP(=O)(O)O)[C@@H](O)[C@H]2O)cc1 [Compound J, ((2R,3S,4R)-3,4-dihydroxy-5-(((4-methoxyphenyl)(methyl)amino)methyl)tetrahydrofuran-2-yl)methyltriphosphoric acid]
EC50 (P2Y2 receptor; [5]): > 1000 nM

[H]/N=C(/NCCCCC)N/N=C/c1c[nH]c2ccc(OC)cc12 [tegaserod]
geometric center (GC) of the small intestine (male Balb/C mice [1]): No statistical significance was observed
stomach retention, percentage of total radioactivity left in the stomach (male Balb/C mice [1]): statistically significance for tegaserod versus vehicle using Student's t-test

O=P(O)(O)OP(=O)(O)OP(=O)(O)OC[C@H]1O[C@@H](CNc2cccnc2)[C@H](O)[C@@H]1O [Compound K, ((2R,3S,4R,5S)-3,4-Dihydroxy-5-((pyridin-3-ylamino)methyl)tetrahydrofuran-2-yl)methyltriphosphoric acid]
EC50 (P2Y2 receptor; [5]): > 1000 nM
